Source: patent EP2540163A1, “Nematocide N-cyclopropyl-sulfonylamide derivatives” (Bayer CropScience AG, priority 2011, dated 2013)

What was measured:
Meloidogyne incognita = format: in vivo; conditions: 336 h, 20 ppm
Description: Meloidogyne incognita - test
To produce a suitable preparation of active compound, 1 part by weight of active compound is mixed with the stated amount of solvent, and the concentrate is diluted with emulsifier-containing water to the desired concentration.
Vessels are filled with sand, a solution of the active ingredient, a suspension containing eggs and larvae of Meloidogyne incognita and salad seeds. The salad seeds germinate and the seedlings grow. Galls develop in the roots.
After 14 days the nematicidal activity is determined on the basis of the percentage of gall formation. 100% means that no galls were found; 0% means that the number of galls found on the roots of the treated plants was equal to that in untreated control plants.

[1] = logP by HPLC on reversed-phase column (C 18), EEC Directive 79/831 Annex V.A8, Method A (0.1% aqueous phosphoric acid / acetonitrile, 43°C); format: physicochemical; conditions: c18 reversed-phase hplc
Description: Calibration was carried out using unbranched alkan-2-ones (having 3 to 16 carbon atoms) with known logP values (determination of the logP values by the retention times using linear interpolation between two successive alkanones).

[2] = LogP method A: HPLC reversed-phase C 18, 43°C, 0.1% aqueous phosphoric acid / acetonitrile
[3] = LogP method A: HPLC, 43°C, 0.1% aqueous phosphoric acid, acetonitrile, gradient 10% to 90% acetonitrile

Row | SMILES | chromatographic logP [1, 2] | other results
1 | Cc1nc(C(=O)N(C2CC2)S(=O)(=O)c2ccc(Cl)c(C(F)(F)F)c2)cs1 [compound 69] | 3.63 | nematicidal activity determined on the basis of the percentage of gall formation (Meloidogyne incognita): 80%
2 | Cc1nn(C)c(Cl)c1C(=O)N(C1CC1)S(=O)(=O)c1ccc(Cl)c(C(F)(F)F)c1 [compound 406] | 3.76 | 
3 | Cc1nn(C)c(Cl)c1C(=O)N(C1CC1)S(=O)(=O)c1ccc(Cl)c(Cl)c1 [compound 407] | 3.63 | 
4 | Cc1n[nH]c(C)c1C(=O)N(C1CC1)S(=O)(=O)c1ccc(Cl)c(C(F)(F)F)c1 [compound 408] | 3 | 
5 | Cc1n[nH]c(C)c1C(=O)N(C1CC1)S(=O)(=O)c1ccc(Cl)c(Cl)c1 [compound 409] | 2.74 | 
6 | Cc1nn(C)c(C)c1C(=O)N(C1CC1)S(=O)(=O)c1ccc(Cl)c(C(F)(F)F)c1 [compound 411] | 3.37 | 
7 | Cc1nn(C)c(C)c1C(=O)N(C1CC1)S(=O)(=O)c1ccc(Cl)c(Cl)c1 [compound 412] | 3.21 | 
8 | Cc1nn(C)c(C)c1C(=O)N(C1CC1)S(=O)(=O)c1ccc(Cl)cc1Cl [compound 413] | 2.8 | 
9 | Cc1nn(C)c(F)c1C(=O)N(C1CC1)S(=O)(=O)c1cc(Cl)sc1Cl [compound 435] | 3.16 | 
10 | Cc1nn(C)c(F)c1C(=O)N(C1CC1)S(=O)(=O)c1cccnc1Cl [compound 446] | 1.96 | 
11 | Cc1nn(C)c(F)c1C(=O)N(C1CC1)S(=O)(=O)c1cnc(Cl)c(Br)c1 [compound 447] | 3.08 | 
12 | CCc1onc(C(C)C)c1C(=O)N(C1CC1)S(=O)(=O)c1cccc(Cl)c1 [compound 589] | 4.18 | 
13 | CCc1onc(C(C)C)c1C(=O)N(C1CC1)S(=O)(=O)c1ccc(Cl)c(C(F)(F)F)c1 [compound 594] | 4.82 | 
14 | CCc1onc(C(C)C)c1C(=O)N(C1CC1)S(=O)(=O)c1ccc(Cl)c(Cl)c1 [compound 595] | 4.77 | 
15 | CCc1onc(C(C)C)c1C(=O)N(C1CC1)S(=O)(=O)c1ccc(Cl)cc1Cl [compound 596] | 4.41 | 
16 | Cn1nc(C(=O)N(C2CC2)S(=O)(=O)c2ccccc2Cl)n(C)c1=O [compound 608] | 1.97 | 
17 | COCCn1c(C)c(C(=O)N(C2CC2)S(=O)(=O)c2cccc(Cl)c2)sc1=O [compound 609] | 2.01 | 
18 | Cc1c(C(=O)N(C2CC2)S(=O)(=O)c2cccc(Cl)c2)sc(=O)n1Cc1ccccc1 [compound 613] | 2.01 | 
19 | CCc1c(C(=O)N(C2CC2)S(=O)(=O)c2cccc(Cl)c2)sc(=O)n1C1CC1 [compound 615] | 2.01 | 
20 | CC(C)c1c(C(=O)N(C2CC2)S(=O)(=O)c2cccc(Cl)c2)sc(=O)n1C1CC1 [compound 617] | 2.01 | 
21 | COCCn1c(C)c(C(=O)N(C2CC2)S(=O)(=O)c2ccc(Cl)c(C(F)(F)F)c2)sc1=O [compound 619] | 2.01 | 
22 | COCCn1c(C)c(C(=O)N(C2CC2)S(=O)(=O)c2ccc(Cl)cc2Cl)sc1=O [compound 620] | 2.01 | 

Row | SMILES | chromatographic logP [1, 2] | other results
23 | Cc1c(C(=O)N(C2CC2)S(=O)(=O)c2ccc(Cl)c(C(F)(F)F)c2)sc(=O)n1C [compound 622] | 2.01 | 
24 | Cc1c(C(=O)N(C2CC2)S(=O)(=O)c2ccc(Cl)c(Cl)c2)sc(=O)n1C [compound 623] | 2.01 | 
25 | Cc1c(C(=O)N(C2CC2)S(=O)(=O)c2ccc(Cl)c(C(F)(F)F)c2)sc(=O)n1Cc1ccccc1 [compound 625] | 3.01 | 
26 | Cc1c(C(=O)N(C2CC2)S(=O)(=O)c2ccc(Cl)c(Cl)c2)sc(=O)n1Cc1ccccc1 [compound 626] | 3.01 | 
27 | Cc1c(C(=O)N(C2CC2)S(=O)(=O)c2ccc(Cl)cc2Cl)sc(=O)n1Cc1ccccc1 [compound 627] | 4.03 | 
28 | CCc1c(C(=O)N(C2CC2)S(=O)(=O)c2ccc(Cl)c(Cl)c2)sc(=O)n1C1CC1 [compound 630] | 4.08 | 
29 | CCc1c(C(=O)N(C2CC2)S(=O)(=O)c2ccc(Cl)cc2Cl)sc(=O)n1C1CC1 [compound 631] | 2.01 | 
30 | CC(C)c1c(C(=O)N(C2CC2)S(=O)(=O)c2ccc(Cl)c(C(F)(F)F)c2)sc(=O)n1C1CC1 [compound 633] | 3.01 | 
31 | CC(C)c1c(C(=O)N(C2CC2)S(=O)(=O)c2ccc(Cl)c(Cl)c2)sc(=O)n1C1CC1 [compound 634] | 3.01 | 
32 | CC(C)c1c(C(=O)N(C2CC2)S(=O)(=O)c2ccc(Cl)cc2Cl)sc(=O)n1C1CC1 [compound 635] | 2.01 | 
33 | O=C(c1cccnc1)N(C1CC1)S(=O)(=O)c1ccc(Cl)c(C(F)(F)F)c1 [compound 638] | 3.1 | nematicidal activity determined on the basis of the percentage of gall formation (Meloidogyne incognita): 100%
34 | O=C(c1cccnc1)N(C1CC1)S(=O)(=O)c1ccc(Cl)c(Cl)c1 [compound 639] | 2.91 | 
35 | O=C(c1cccnc1)N(C1CC1)S(=O)(=O)c1cccc(Cl)c1 [compound 642] | 2.3 | 
36 | O=C(c1cccnc1Cl)N(C1CC1)S(=O)(=O)c1cccc(Cl)c1 [compound 643] | 2.91 | 
37 | O=C(c1cccnc1Cl)N(C1CC1)S(=O)(=O)c1ccccc1Cl [compound 644] | 2.58 | 
38 | Cc1cc(C)c(C(=O)N(C2CC2)S(=O)(=O)c2cccc(Cl)c2Cl)c(Cl)n1 [compound 650] | 3.57 | 
39 | Cc1cc(C)c(C(=O)N(C2CC2)S(=O)(=O)c2ccc(Cl)c(Cl)c2Cl)c(Cl)n1 [compound 651] | 4.16 | 
40 | CC1=C(C(=O)N(C2CC2)S(=O)(=O)c2ccccc2Cl)OCCS1 [compound 652] | 2.78 | 
41 | O=C(C1=C(C(F)(F)F)OCCS1)N(C1CC1)S(=O)(=O)c1ccccc1Cl [compound 653] | 3.2 | 
42 | Cc1cc(C(=O)N(C2CC2)S(=O)(=O)c2ccccc2Cl)nc(Cl)n1 [compound 654] | 2.93 | 
43 | Cc1nn(C)c(F)c1C(=O)N(C1(c2ccc(Cl)cc2)CC1)S(=O)(=O)c1cccc(Cl)c1Cl [compound 669] |  | chromatographic logP [1, 3]: 4.44
44 | Cc1nn(C)c(F)c1C(=O)N(C1CC1c1ccccc1)S(=O)(=O)c1ccccc1Cl (stereo not shown) [compound 676] |  | chromatographic logP [1, 3]: 3.27
